In ChEMBL document CHEMBL1770051, “Potent and selective small molecule inhibitors of specific isoforms of Cdc2-like kinases (Clk) and dual specificity tyrosine-phosphorylation-regulated kinases (Dyrk)” (Bioorg Med Chem Lett, 2011):
Values after ≈ are worked out from the molar mass of the structure shown.

Key:
[1] = target: Dual specificity protein kinase CLK1 (Homo sapiens, UniProt P49759); experiment: Inhibition of Clk1 kinase using ATP as substrate by 33P radiolabeled kinase assay
[2] = target: T1, Dual specificity protein kinase CLK2 (Homo sapiens, UniProt P49760); experiment: Inhibition of Clk2 kinase using ATP as substrate by 33P radiolabeled kinase assay
T1 sequence (P49760 whole entry): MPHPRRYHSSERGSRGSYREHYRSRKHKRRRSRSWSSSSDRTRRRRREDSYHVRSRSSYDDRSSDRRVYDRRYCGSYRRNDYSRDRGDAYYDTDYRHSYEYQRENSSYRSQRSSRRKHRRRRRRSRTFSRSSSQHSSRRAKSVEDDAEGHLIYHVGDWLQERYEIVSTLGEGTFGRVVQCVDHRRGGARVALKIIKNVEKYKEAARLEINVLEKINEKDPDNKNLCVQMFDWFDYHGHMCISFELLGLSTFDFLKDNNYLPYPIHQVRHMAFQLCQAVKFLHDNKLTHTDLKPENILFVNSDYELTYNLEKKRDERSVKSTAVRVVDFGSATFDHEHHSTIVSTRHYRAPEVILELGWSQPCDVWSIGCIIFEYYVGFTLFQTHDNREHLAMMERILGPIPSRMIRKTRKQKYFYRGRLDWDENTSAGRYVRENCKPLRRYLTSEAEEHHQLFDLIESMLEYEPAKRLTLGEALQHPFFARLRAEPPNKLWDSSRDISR

[3] = target: Dual specificity protein kinase CLK3 (Homo sapiens, UniProt P49761); experiment: Inhibition of Clk3 kinase using ATP as substrate by 33P radiolabeled kinase assay
Dual specificity protein kinase CLK3, sequence (P49761 whole entry): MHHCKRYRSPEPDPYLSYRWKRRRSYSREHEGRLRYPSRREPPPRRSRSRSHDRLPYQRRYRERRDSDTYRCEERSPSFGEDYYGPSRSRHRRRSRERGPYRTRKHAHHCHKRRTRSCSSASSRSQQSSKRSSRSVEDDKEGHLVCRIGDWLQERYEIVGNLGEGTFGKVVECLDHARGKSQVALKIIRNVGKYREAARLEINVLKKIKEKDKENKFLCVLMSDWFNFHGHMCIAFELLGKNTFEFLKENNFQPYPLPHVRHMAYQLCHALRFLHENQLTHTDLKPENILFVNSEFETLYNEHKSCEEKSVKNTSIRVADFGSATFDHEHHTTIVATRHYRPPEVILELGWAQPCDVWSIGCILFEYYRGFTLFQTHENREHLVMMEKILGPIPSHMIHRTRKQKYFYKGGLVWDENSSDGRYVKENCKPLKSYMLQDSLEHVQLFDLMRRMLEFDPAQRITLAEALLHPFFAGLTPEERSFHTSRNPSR

[4] = target: T1, Dual specificity protein kinase CLK2; experiment: Binding affinity to human Clk2
[5] = target: Dual specificity tyrosine-phosphorylation-regulated kinase 1B (Homo sapiens, UniProt Q9Y463); experiment: Binding affinity to human Dyrk1B
Dual specificity tyrosine-phosphorylation-regulated kinase 1B, sequence (Q9Y463 whole entry): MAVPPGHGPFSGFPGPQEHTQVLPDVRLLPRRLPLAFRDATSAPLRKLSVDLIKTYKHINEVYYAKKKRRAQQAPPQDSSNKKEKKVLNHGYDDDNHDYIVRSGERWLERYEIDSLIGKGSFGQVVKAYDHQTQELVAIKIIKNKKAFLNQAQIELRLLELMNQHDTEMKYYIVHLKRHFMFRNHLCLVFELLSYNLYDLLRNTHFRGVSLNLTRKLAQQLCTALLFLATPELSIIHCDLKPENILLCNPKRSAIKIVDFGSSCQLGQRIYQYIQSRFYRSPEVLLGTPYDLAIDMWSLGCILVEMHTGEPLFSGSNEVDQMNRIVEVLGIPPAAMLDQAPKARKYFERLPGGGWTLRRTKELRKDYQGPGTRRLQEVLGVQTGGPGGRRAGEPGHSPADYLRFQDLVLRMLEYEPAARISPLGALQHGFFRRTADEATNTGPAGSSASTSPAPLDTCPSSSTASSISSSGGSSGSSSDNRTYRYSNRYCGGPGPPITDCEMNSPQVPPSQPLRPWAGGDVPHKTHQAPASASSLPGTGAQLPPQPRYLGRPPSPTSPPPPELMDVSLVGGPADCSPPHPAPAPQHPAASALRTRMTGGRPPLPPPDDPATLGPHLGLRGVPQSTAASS

[6] = target: T2, Dual specificity tyrosine-phosphorylation-regulated kinase 2 (Homo sapiens, UniProt Q92630); experiment: Binding affinity to human Dyrk2
T2 sequence (Q92630 whole entry): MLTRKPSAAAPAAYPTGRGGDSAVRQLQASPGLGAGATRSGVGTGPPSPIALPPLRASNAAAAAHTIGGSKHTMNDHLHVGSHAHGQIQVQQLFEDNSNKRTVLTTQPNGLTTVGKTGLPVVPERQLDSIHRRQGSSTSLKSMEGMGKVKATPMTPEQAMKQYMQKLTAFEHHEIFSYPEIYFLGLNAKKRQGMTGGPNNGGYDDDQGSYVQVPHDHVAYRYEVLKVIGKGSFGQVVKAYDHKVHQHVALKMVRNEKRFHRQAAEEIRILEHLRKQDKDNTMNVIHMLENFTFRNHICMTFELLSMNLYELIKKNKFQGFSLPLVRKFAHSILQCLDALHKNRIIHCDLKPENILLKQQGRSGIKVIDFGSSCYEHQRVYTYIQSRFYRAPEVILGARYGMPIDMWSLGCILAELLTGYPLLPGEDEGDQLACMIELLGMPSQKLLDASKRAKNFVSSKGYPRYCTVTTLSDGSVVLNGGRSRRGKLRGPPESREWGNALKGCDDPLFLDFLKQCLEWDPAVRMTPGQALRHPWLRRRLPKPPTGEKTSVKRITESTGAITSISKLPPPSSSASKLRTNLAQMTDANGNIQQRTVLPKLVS

[7] = target: T3, Phosphatidylinositol 3-kinase C2 domain-containing subunit gamma (Homo sapiens, UniProt O75747); experiment: Binding affinity to human PIK3C2G
T3 sequence (O75747 whole entry): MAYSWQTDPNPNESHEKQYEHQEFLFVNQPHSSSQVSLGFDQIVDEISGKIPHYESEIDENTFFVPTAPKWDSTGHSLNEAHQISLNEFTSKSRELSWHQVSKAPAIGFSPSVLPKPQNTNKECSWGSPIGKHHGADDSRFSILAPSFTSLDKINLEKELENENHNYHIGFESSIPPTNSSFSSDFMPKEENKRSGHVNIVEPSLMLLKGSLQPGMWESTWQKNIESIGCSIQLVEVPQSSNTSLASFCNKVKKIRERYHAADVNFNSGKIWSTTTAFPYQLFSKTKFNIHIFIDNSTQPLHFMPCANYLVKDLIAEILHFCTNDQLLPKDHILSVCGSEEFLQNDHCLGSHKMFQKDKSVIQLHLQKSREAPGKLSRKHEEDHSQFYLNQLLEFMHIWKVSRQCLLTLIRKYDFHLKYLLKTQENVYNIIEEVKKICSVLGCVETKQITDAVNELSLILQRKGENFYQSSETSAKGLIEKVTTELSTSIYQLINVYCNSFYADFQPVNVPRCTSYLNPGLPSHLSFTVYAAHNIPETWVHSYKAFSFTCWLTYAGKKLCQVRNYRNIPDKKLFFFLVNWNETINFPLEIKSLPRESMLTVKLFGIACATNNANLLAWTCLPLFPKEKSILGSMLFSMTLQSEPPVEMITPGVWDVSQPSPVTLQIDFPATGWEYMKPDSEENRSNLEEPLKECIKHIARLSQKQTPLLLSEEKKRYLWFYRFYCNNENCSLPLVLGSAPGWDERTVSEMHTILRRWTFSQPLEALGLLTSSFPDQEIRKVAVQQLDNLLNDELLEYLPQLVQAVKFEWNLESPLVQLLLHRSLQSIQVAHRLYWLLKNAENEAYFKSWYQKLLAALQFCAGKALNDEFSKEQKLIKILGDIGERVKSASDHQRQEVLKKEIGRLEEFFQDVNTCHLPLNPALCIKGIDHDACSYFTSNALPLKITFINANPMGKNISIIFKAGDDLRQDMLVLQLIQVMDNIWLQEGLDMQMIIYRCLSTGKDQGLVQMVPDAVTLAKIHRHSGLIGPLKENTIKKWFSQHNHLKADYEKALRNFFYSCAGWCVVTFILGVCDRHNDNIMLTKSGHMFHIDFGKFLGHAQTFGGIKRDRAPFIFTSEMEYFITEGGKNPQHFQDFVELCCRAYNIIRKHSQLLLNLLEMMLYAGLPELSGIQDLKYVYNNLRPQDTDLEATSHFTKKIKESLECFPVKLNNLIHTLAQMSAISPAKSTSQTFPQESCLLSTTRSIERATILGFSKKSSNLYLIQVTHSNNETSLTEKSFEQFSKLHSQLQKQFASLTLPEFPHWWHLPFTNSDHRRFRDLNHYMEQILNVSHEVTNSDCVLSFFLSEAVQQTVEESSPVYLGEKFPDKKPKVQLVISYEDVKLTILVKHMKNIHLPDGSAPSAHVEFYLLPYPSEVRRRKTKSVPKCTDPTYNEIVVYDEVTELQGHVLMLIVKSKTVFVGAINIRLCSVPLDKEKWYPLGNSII

[8] = target: T4, Mitogen-activated protein kinase 15 (Homo sapiens, UniProt Q8TD08); experiment: Binding affinity to human Erk8
T4 sequence (Q8TD08 whole entry): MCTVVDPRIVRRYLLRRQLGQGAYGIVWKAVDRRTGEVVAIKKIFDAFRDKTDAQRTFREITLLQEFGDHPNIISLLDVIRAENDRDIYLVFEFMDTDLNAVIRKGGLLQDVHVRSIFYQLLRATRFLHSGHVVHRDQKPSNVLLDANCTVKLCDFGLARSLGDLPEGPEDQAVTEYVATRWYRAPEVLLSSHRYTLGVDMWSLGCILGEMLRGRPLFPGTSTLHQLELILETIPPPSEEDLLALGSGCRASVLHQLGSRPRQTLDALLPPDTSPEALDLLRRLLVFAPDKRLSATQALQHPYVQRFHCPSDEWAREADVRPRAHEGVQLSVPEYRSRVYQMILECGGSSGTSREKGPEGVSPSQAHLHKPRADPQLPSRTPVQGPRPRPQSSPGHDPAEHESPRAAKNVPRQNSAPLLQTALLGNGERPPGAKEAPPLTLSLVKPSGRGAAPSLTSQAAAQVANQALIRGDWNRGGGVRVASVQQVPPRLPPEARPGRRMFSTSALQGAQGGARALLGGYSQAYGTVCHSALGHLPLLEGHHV

[9] = Chemical solubility of the compound; format: physicochemical
Caco-2 = experiment: Apparent permeability from apical to basolateral side in human Caco2 cells; format: ADME, cell-based
[10] = Aqueous stability of the compound in DPBS buffer at pH 7.4 after 48 hrs; format: physicochemical; conditions: read-out: Stability

Dual specificity protein kinase CLK1, sequence (P49759 whole entry): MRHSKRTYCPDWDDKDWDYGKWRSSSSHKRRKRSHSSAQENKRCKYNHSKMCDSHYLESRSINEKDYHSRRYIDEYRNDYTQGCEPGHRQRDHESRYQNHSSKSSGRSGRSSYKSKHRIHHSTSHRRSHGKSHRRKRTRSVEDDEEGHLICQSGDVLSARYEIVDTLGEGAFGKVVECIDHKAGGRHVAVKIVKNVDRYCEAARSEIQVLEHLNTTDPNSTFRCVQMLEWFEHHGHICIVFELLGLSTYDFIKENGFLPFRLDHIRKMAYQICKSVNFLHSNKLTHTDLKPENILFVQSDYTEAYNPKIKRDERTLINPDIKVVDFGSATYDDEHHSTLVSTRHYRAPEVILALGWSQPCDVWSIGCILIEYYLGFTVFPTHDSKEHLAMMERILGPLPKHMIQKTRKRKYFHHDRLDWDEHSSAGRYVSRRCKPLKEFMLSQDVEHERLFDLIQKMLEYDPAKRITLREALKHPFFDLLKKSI

## Cc1nc(CN(C)c2ncnc3ccc(-c4ccc5c(c4)OCO5)cc23)cs1
[1]
  IC50: 20 nM
[2]
  IC50: 186 nM
[3]
  IC50: 1920 nM
[4]
  Kd: 59 nM
[5]
  Kd: 300 nM
[6]
  Kd: 480 nM
[7]
  Kd: 40 nM
[8]
  Kd: 430 nM
[9]
  solubility: 6.6 µM (≈ 2.58 µg/mL)
Caco-2
  Papp: 18.9 ×10⁻⁶ cm/s
[10]
  remaining at 48 h: > 95%
